Experimental data taken from US8784929B2 (priority 2007, dated 2014).

Assays:
αHL-WT [1] = biological target: T1, αHL-WT (Staphylococcus aureus, UniProt P09616); assay type: biochemical, staphylococcal; details: pH 7
αHL-WT [2] = biological target: T1, αHL-WT; details: cited from earlier work

T1 sequence (P09616 27-319 limits assumed): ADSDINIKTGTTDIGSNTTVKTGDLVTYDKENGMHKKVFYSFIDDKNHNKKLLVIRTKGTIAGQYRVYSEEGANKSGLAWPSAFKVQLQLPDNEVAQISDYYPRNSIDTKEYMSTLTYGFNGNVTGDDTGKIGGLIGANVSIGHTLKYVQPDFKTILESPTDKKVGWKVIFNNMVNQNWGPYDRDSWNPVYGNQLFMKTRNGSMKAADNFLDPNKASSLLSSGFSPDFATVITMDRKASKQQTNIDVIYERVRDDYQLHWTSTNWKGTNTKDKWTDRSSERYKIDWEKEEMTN

SMILES	current block on binding to αHL-WT (αHL-WT [1])	binding of β-cyclodextrin (in words) (αHL-WT [2])
COC[C@H]1O[C@@H]2O[C@H]3[C@H](OC)[C@@H](OC)[C@@H](O[C@H]4[C@H](OC)[C@@H](OC)[C@@H](O[C@H]5[C@H](OC)[C@@H](OC)[C@@H](O[C@H]6[C@H](OC)[C@@H](OC)[C@@H](O[C@H]7[C@H](OC)[C@@H](OC)[C@@H](O[C@H]8[C@H](OC)[C@@H](OC)[C@@H](O[C@H]1[C@H](OC)[C@H]2OC)O[C@@H]8COC)O[C@@H]7COC)O[C@@H]6COC)O[C@@H]5COC)O[C@@H]4COC)O[C@@H]3COC [hβCD, heptakis(2,3,6-tri-O-methyl)-β-cyclodextrin]	95%	
OC[C@H]1O[C@@H]2O[C@H]3[C@H](O)[C@@H](O)[C@@H](O[C@H]4[C@H](O)[C@@H](O)[C@@H](O[C@H]5[C@H](O)[C@@H](O)[C@@H](O[C@H]6[C@H](O)[C@@H](O)[C@@H](O[C@H]7[C@H](O)[C@@H](O)[C@@H](O[C@H]8[C@H](O)[C@@H](O)[C@@H](O[C@H]1[C@H](O)[C@H]2O)O[C@@H]8CO)O[C@@H]7CO)O[C@@H]6CO)O[C@@H]5CO)O[C@@H]4CO)O[C@@H]3CO [β-cyclodextrin]		does not bind β-cyclodextrin strongly
OC[C@H]1O[C@@H]2O[C@H]3[C@H](O)[C@@H](O)[C@@H](O[C@H]4[C@H](O)[C@@H](O)[C@@H](O[C@H]5[C@H](O)[C@@H](O)[C@@H](O[C@H]6[C@H](O)[C@@H](O)[C@@H](O[C@H]7[C@H](O)[C@@H](O)[C@@H](O[C@H]8[C@H](O)[C@@H](O)[C@@H](O[C@H]9[C@H](O)[C@@H](O)[C@@H](O[C@H]1[C@H](O)[C@H]2O)O[C@@H]9CO)O[C@@H]8CO)O[C@@H]7CO)O[C@@H]6CO)O[C@@H]5CO)O[C@@H]4CO)O[C@@H]3CO [γCD, γ-cyclodextrin]	68%	
